# Assay results from PMC7875557, “Development and optimization of sitagliptin and dapagliflozin loaded oral self-nanoemulsifying formulation against type 2 diabetes mellitus” (Drug Delivery, 2020).
# What was measured:
# [1] = β-carotene–linoleic acid (bleaching) assay; conditions: 1000 µg
# Method: The antioxidant activity of the samples were evaluated using the β-carotene bleaching method described by Velioglu et al. ([1998]) with modifications. One milliliter (1 mL) of a 0.2 mg/mL solution of β -carotene in chloroform was added to flasks containing 0.2 mL of Tween 20 and 0.02 mL of linoleic acid. The chloroform was removed in a rotary evaporator at 40 °C. The resulting mixture was then diluted with 100 mL of distilled water and mixed for approximately 2 min to form an emulsion. Similarly, another mixture was prepared without β-carotene to use as a blank. A control containing 0.2 mL of 80% (v/v) methanol was also used instead of sample. Aliquot of the emulsion (5 mL) was added to 0.2 mL of the sample at 1 mg/mL. As a standard, Rutin (1 mg/mL) was used. The tubes were incubated in a water bath at 40 °C for 2 h. Absorbance was measured at 470 nm at 15 min intervals, using a UV–visible spectrophotometer (UV mini-1240, Shimadzu, Japan) and the antioxidant activity was calculated from the equation below: (2) % of antioxidant activity= (Abs0 − Abst)/(Abs0° − Abst°) ×100 where, Abs0 and Abs0° represented the absorbance values measured at zero time of incubation for sample extract and control, respectively. Abst and Abst° are the absorbance values at t = 120 min for samples and control, respectively.
# Diabetic mice (STZ) = experiment: Anti-diabetic study in streptozotocin-induced diabetic mice; assay type: in vivo, Swiss albino mice; conditions: DN 6 mg/kg, SN 10 mg/kg; for Glucose level 0 h: STZ (60 mg/kg) diabetic mice, before dose; for Glucose level 0 h / Glucose level 2 h: Mean ± SEM, n = 3; for Glucose level decrease / Glucose level 2 h / % Inhibition of glucose level: STZ diabetic mice; for Glucose level decrease: 0 h to 2 h; for Glucose level 2 h / % Inhibition of glucose level: 2 h after dose
# Method: Male Swiss albino mice (20–25 g) roughly of same age group were procured from the Experimental Animal Care Center, College of Pharmacy, King Saud University, with the approval Clearance No. KSU-SE—19-105 (20th November 2019) by the Ethical committee. The animals used in this study were kept at 22 °C temperature by maintaining 55% humidity and light/dark (12/12 h) conditions. They were provided free access to Purina chow and drinking water ad libitum. The […] were initially acclimatized for seven days prior to being used for the anti-diabetic studies.
# Diabetes was induced overnight in fasted mice by single intraperitoneal (IP) injection of 60 mg/kg of streptozotocin (STZ) that was freshly dissolved in 0.1 M cold citrate buffer at pH 4.5. After 72 h of STZ administration, blood was collected from the animals and plasma glucose levels were examined. Animals that were confirmed diabetic by the elevated plasma glucose levels (>200 mg/dl) were used for the experiment. The animals were then randomly assigned into seven groups of three animals and received the following treatments: Group I: Normal control mice treated with Normal saline; Group II: Diabetic control mice treated with Normal saline; Group III: Diabetic mice treated with thymoquinone 5 mg/kg (IP); Group IV: Diabetic mice treated with DN 6 mg/kg (IP); Group V: Diabetic mice treated with SN 10 mg/kg (IP); Group VI: Diabetic mice treated with DN 6 mg/kg (IP) and SN 10 mg/kg (IP); Group VII: Diabetic mice treated with marketed product Dapazin® 6 mg/kg (IP).
# SGLT2 = conditions: ref Santos et al., 2017, Wilding et al.; cited from earlier work
# [2] = In vivo oral bioavailability / pharmacokinetic study; conditions: male, Wister, rat, plasma, 6 mg/kg; rats, after oral administration; read-out: Time to peak plasma levels
# Method: Male rats (Wister, 200–220 g) were obtained from Laboratory Animal Center of pharmacy college, KSU. The rats were randomly allocated into two groups, each group consisted of six rats: the representative SNEDDS [F1, BSO/CMCM/CrEL (15/35/50%w/w)] (group A) and marketed drug (group B). The animals were fasted for 12 h prior to the oral administration of SNEDDS of DN (6 mg/kg rat). The experimental procedures were carried out in accordance with the principles of National Institute of Health Guide for the Care and Use of Laboratory Animals (NIH Publications No. 80–23; 1996) as well as the animal facilities guidelines from the Ethical committee of Experimental Animal Care Center, College of Pharmacy, King Saud University (Clearance No. KSU-SE—19-105; 20th November 2019). […]
# In vivo animal studies were performed using only DN in the dose and SN was not included due to the different pharmacokinetic features of the SN and DN. […] The concentration of DN in plasma was determined by UHPLC as follow: A 775 μL of methanol was added to 225 μL aliquot of plasma. […] The nonlinear pharmacokinetic parameters such as Cmax, Tmax, and AUC(0–∞) were determined.
# The pharmacokinetic assessment was done after oral administration on the basis of DN concentrations in the plasma samples of the rat. […] This was vortexed and transferred to an auto sampler vial to be analyzed in the UHPLC system. […]
# [3] = Equilibrium solubility (shake flask); assay type: physicochemical; conditions: for Solubility in Water (100%): 100% water
# Method: […] The samples were prepared by adding an excess amount of SN and DN to the formulations, which was then thoroughly agitated with a vortex mixer to ensure adequate mixing. Three replicates were taken for each formulation. The samples for the solubility experiments were analyzed using in-house developed UHPLC method by dissolving each of the formulations with an appropriate solvent.
# [4] = DPPH free radical scavenging assay
# Method: For antioxidant activity, DPPH (2, 2-diphenyl-1-picrylhydrazyl) free radical scavenging assay was employed. This method was carried out as previously described by Brand-Williams et al. ([1995]). The method quantifies free radical scavenging capacity of the investigated samples. DPPH is a molecule that contains a stable free radical. In the presence of an antioxidant which is able to donate an electron to DPPH, the change in the absorbance at 517 nm is followed spectrophotometrically (UV mini-1240, Shimadzu, Japan). Various concentrations of […] (10, 50, 100, 500, and 1000 μg/mL) were used. The assay mixture was made up of a total volume of 1 mL, containing 500 μL of the sample, 125 μL of the prepared DPPH, and 375 μL of methanol. As positive control, ascorbic acid was used. The samples were incubated for 30 min at 25 °C, after which the decrease in absorbance was measured at λ = 517 nm. Radical scavenging activity of the samples were calculated using the following equation below: (1) % radical scavenging activity=(Abs control − Abs sample/Abs control) ×100
smiles,measurement,setting,value
C[C@@H]1O[C@@H](OC[C@H]2O[C@@H](Oc3c(-c4ccc(O)c(O)c4)oc4cc(O)cc(O)c4c3=O)[C@H](O)[C@@H](O)[C@@H]2O)[C@H](O)[C@H](O)[C@H]1O [Rutin],Total antioxidant activity,[1],93.1 ± 1.2%
"CCOc1ccc(Cc2cc([C@@H]3O[C@H](CO)[C@@H](O)[C@H](O)[C@H]3O)ccc2Cl)cc1 [Dapagliflozin, dapagliflozin]",Glucose level 0 h,Diabetic mice (STZ),362.00 ± 4.93 mg/dL
same,Glucose level decrease,Diabetic mice (STZ),143 mg/dL
same,Glucose level 2 h,Diabetic mice (STZ),219.00 ± 7.57 mg/dL
same,% Inhibition of glucose level,Diabetic mice (STZ); listed as DN,39.50%
same,% Inhibition of glucose level,Diabetic mice (STZ); listed as DN (pure),39.50↓ %
same,Selectivity for SGLT2 over SGLT1,SGLT2,1200 fold
same,Tmax,[2],≤ 4 h
same,Solubility in Water (100%),[3],1.48 ± 0.14 mg/g
O=C1O[C@H]([C@@H](O)CO)C(O)=C1O [Ascorbic acid],Radical scavenging activity,[4]; 10 µg,33.7 ± 3.5%
same,Radical scavenging activity,[4]; 50 µg,74.1 ± 1.3%
same,Radical scavenging activity,[4]; 100 µg,85.6 ± 3.2%
same,Radical scavenging activity,[4]; 500 µg,88.7 ± 2.7%
same,Radical scavenging activity,[4]; 1000 µg,91.7 ± 3.4%
"N[C@@H](CC(=O)N1CCn2c(nnc2C(F)(F)F)C1)Cc1cc(F)c(F)cc1F [Sitagliptin, sitagliptin]",Glucose level 0 h,Diabetic mice (STZ),381.33 ± 11.25 mg/dL
same,Glucose level decrease,Diabetic mice (STZ),208 mg/dL
same,Glucose level 2 h,Diabetic mice (STZ),173.33 ± 7.53 mg/dL
same,% Inhibition of glucose level,Diabetic mice (STZ); listed as SN,54.54%
same,% Inhibition of glucose level,Diabetic mice (STZ); listed as SN (Pure),54.54↓ %
same,Solubility in Water (100%),[3],3.62 ± 0.11 mg/g
same,Loading of SN in the anhydrous SNEDDS relative to aqueous solubility,[3]; from equilibrium solubility of diluted formulations,> 400%
